Measured values from US20210395239A1 (Hoffmann-La Roche Inc., priority 2018, published 2021).
Like-named read-outs stand apart in the source and are kept apart here.

Key:
hTLR9 [1] = molecular target: T1, hTLR9 (Homo sapiens, UniProt Q9NR96); design: host or cells: HEK; details: data disclosed in US20150105370; read-out: HEK/hTLR9 IC50; cited from earlier work
T1 sequence (Q9NR96 26-1032): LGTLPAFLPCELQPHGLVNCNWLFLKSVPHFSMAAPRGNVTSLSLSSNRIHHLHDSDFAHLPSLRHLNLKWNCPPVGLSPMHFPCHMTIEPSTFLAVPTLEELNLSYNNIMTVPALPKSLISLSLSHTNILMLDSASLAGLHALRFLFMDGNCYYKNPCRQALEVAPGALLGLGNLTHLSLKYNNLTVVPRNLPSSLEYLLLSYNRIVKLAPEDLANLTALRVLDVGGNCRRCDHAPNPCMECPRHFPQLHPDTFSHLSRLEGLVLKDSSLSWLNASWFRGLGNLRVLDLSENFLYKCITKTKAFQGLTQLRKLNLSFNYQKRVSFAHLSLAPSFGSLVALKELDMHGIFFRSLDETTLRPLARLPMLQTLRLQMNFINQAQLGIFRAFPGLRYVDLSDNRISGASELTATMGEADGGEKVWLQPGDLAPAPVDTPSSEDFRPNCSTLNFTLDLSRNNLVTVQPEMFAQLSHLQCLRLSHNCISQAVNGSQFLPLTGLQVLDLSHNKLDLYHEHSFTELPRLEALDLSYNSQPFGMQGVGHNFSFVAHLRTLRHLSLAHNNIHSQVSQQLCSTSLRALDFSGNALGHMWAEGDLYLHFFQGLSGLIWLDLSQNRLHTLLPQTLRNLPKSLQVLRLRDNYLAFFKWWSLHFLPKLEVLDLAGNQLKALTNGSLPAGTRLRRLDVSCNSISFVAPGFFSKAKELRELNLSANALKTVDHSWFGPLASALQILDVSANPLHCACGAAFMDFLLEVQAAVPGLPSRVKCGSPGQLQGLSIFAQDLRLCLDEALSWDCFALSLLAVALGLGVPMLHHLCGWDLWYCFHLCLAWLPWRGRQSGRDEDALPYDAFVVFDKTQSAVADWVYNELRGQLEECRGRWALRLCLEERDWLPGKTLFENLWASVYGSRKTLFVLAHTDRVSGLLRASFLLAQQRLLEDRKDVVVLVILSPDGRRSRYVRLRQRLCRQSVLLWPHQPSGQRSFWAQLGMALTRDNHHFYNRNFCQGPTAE

hERG channel = molecular target: T2, hERG channel (Homo sapiens, UniProt Q12809); experiment: hERG channel inhibition assay (patch-clamp, CHOhERG cells); type: cell-based; details: for safety window (hERG IC20/TLR7/8/9 IC50) compared to the compounds of this invention: result in words; for hERG IC20/TLR7 IC50 / hERG IC20/TLR9 IC50 / hERG IC20/TLR8 IC50: safety ratio
T2 construct: expressed in transfected cells; host or cells: CHO (Chinese hamster ovary)
Experimental: hERG Channel Inhibition Assay:
The hERG K^+ channels were cloned in humans and stably expressed in a CHO (Chinese hamster ovary) cell line. CHOhERG cells were used for patch-clamp (voltage-clamp, whole-cell) experiments. Cells were stimulated by a voltage pattern to activate hERG channels and conduct IKhERG currents (rapid delayed outward rectifier potassium current of the hERG channel). After the cells were stabilized for a few minutes, the amplitude and kinetics of IKhERG were recorded at a stimulation frequency of 0.1 Hz, (6 bpm). Thereafter, the test compound was added to the preparation at increasing concentrations. For each concentration, an attempt was made to reach a steady-state effect, usually, this was achieved within 3-10 min at which time the next highest concentration was applied. The amplitude and kinetics of IKhERG are recorded in each concentration of the drug which were compared to the control values (taken as 100%). (references: Redfern W S, Carlsson L, Davis A S, Lynch W G, MacKenzie I, Palethorpe S, Siegl P K, Strang I, Sullivan A T, Wallis R, Camm A J, Hammond T G. 2003; Relationships between preclinical cardiac electrophysiology, clinical QT interval prolongation and torsade de pointes for a broad range of drugs: evidence for a provisional safety margin in drug development. Cardiovasc. Res. 58:32-45, Sanguinetti M C, Tristani-Firouzi M. 2006; hERG potassium channels and cardiac arrhythmia. Nature 440:463-469, Webster R, Leishman D, Walker D. 2002; Towards a drug concentration effect relationship for QT prolongation and torsades de pointes. Curr. Opin. Drug Discov. Devel. 5:116-26).

human TLR7 = molecular target: T3, human TLR7 (Homo sapiens, UniProt Q9NYK1); experiment: HEK293-Blue-hTLR-7 cells assay (SEAP reporter, R848 stimulation); type: cell-based; details: HEK293-Blue-hTLR7 cells, R848, 20 hrs; read-out: HEK/hTLR7 IC50
T3 construct: host or cells: HEK293 (HEK-Blue hTLR7)
T3 sequence (Q9NYK1 27-1049): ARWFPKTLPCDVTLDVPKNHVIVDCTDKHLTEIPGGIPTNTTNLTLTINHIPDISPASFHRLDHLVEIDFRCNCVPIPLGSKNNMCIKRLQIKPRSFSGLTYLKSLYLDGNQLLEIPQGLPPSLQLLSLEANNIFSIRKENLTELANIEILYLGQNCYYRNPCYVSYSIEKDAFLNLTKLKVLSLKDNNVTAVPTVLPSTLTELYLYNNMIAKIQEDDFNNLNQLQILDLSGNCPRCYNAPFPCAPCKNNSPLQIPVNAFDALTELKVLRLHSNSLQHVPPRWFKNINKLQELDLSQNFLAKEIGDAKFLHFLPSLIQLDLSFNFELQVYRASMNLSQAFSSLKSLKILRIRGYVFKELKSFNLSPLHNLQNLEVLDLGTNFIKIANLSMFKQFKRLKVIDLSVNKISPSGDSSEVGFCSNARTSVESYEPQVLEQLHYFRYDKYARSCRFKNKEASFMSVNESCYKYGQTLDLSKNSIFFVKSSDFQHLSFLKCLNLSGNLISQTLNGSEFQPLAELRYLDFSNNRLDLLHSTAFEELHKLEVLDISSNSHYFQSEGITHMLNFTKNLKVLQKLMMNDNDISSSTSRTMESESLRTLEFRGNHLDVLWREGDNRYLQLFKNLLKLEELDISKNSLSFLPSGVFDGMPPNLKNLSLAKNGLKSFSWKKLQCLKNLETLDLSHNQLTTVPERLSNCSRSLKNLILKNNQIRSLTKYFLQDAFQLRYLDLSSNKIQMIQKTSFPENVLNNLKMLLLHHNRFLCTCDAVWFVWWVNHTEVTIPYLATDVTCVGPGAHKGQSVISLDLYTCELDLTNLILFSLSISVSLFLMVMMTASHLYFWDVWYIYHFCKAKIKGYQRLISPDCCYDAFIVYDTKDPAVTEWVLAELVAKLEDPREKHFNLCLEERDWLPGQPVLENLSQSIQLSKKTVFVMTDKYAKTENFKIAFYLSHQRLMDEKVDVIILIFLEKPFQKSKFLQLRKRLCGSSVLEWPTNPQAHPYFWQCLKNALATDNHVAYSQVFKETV
Source text: HEK293-Blue-hTLR-7 Cells Assay:
(§1) A stable HEK293-Blue-hTLR-7 cell line was purchased from InvivoGen (Cat. #: hkb-ht1r7, San Diego, Calif., USA). These cells were originally designed for studying the stimulation of human TLR7 by monitoring the activation of NF-κB. A SEAP (secreted embryonic alkaline phosphatase) reporter gene was placed under the control of the IFN-β minimal promoter fused to five NF-κB and AP-1-binding sites. The SEAP was induced by activating NF-κB and AP-1 via stimulating HEK-Blue hTLR7 cells with TLR7 ligands. Therefore the reporter expression was declined by TLR7 antagonist under the stimulation of a ligand, such as R848 (Resiquimod), for incubation of 20 hrs. The cell culture supernatant SEAP reporter activity was determined using QUANTI-Blue™ kit (Cat. #: rep-qb1, Invivogen, San Diego, Ca, USA) at a wavelength of 640 nm, a detection medium that turns purple or blue in the presence of alkaline phosphatase.
HEK293-Blue-hTLR7 cells were incubated at a density of […] cells/mL in a volume of 170 μL in a 96-well plate in Dulbecco's Modified Eagle's medium (DMEM) containing 4.5 g/L glucose, 50 U/mL penicillin, […], […], 2 mM L-glutamine, 10% (v/v) heat-inactivated fetal bovine serum with addition of 20 μL test compound in a serial dilution in the presence of final DMSO at 1% and 10 μL of 20 uM R848 in above DMEM, perform incubation under 37° C. in a CO2 incubator for 20 hrs. Then 20 μL of the supernatant from each well was incubated with 180 μL Quanti-blue substrate solution at 37° C. for 2 hrs and the absorbance was read at 620˜655 nm using a spectrophotometer. The signaling pathway that TLR7 activation leads to downstream NF-κB activation has been widely accepted, and therefore similar reporter assay was modified for evaluating TLR7 antagonist.

hTLR9 [2] = molecular target: T1, hTLR9; experiment: HEK293-Blue-hTLR-9 cells assay (SEAP reporter, ODN2006 stimulation); type: cell-based; design: host or cells: HEK293 (HEK-Blue hTLR9); details: HEK293-Blue-hTLR9 cells, ODN2006, 20 hrs; read-out: HEK/hTLR9 IC50
Source text: HEK293-Blue-hTLR-9 Cells Assay:
as §1, with “HEK293-Blue-hTLR-9” for “HEK293-Blue-hTLR-7”, “hkb-htlr9,” for “hkb-ht1r7,”, “TLR9” for “TLR7”, “hTLR9” for “hTLR7”, “ODN2006 (Cat. #: tlrl-2006-1, Invivogen, San Diego, Calif., USA),” for “R848 (Resiquimod),”, “Calif.,” for “Ca,”
HEK293-Blue-hTLR9 cells were incubated at a density of 250,000˜450,000 cells/mL in a volume of 170 μL in a 96-well plate in Dulbecco's Modified Eagle's medium (DMEM) containing 4.5 g/L glucose, 50 U/mL penicillin, […], 2 mM L-glutamine, 10% (v/v) heat-inactivated fetal bovine serum with addition of 20 μL test compound in a serial dilution in the presence of final DMSO at 1% and 10 μL of 20 uM ODN2006 in above DMEM, perform incubation under 37° C. in a CO2 incubator for 20 hrs. Then 20 μL of the supernatant from each well was incubated with 180 μL Quanti-blue substrate solution at 37° C. for 2 h and the absorbance was read at 620-655 nm using a spectrophotometer. The signaling pathway that TLR9 activation leads to downstream NF-κB activation has been widely accepted, and therefore similar reporter assay was modified for evaluating TLR9 antagonist.

T2 sequence (Q12809 whole entry): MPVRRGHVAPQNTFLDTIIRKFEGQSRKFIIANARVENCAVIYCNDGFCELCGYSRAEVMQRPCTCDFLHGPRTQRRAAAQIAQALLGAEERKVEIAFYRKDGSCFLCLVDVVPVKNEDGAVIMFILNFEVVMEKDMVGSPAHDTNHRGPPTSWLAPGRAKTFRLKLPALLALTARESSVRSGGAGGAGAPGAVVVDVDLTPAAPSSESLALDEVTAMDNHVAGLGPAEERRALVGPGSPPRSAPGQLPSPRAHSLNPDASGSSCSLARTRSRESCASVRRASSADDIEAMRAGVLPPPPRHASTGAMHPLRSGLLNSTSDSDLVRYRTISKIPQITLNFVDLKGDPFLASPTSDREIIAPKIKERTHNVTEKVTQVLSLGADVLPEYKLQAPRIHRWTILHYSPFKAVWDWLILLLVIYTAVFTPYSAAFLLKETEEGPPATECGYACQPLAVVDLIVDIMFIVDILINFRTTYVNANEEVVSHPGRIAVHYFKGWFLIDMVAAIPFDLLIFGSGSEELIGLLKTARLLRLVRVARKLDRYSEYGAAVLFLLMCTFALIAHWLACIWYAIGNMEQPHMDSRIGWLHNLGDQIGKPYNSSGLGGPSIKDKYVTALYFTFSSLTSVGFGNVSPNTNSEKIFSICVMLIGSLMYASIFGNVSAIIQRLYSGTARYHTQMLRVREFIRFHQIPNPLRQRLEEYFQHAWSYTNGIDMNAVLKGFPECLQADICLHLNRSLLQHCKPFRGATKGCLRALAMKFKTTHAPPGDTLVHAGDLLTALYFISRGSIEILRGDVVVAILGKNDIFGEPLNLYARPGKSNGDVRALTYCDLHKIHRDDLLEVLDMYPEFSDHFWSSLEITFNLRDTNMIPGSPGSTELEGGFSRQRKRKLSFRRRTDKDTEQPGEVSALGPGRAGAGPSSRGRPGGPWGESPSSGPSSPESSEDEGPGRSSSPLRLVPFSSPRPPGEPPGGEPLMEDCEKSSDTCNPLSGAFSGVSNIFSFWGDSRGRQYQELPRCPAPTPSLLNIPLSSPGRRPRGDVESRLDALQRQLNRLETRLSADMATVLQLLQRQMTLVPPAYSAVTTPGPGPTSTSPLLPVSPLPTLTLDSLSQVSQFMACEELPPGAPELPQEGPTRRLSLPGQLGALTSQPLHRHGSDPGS

Structure (SMILES)	IC50 (hTLR9 [1]) [µM]	safety window (hERG IC20/TLR7/8/9 IC50) compared to the compounds of this invention (hERG channel)	hERG IC20/TLR7 IC50 (hERG channel)	hERG IC20/TLR9 IC50 (hERG channel)	IC50 (human TLR7) [µM]	IC50 (hTLR9 [2]) [µM]	hERG IC20/TLR8 IC50 (hERG channel)
C[C@@H]1CN(c2ccc(C#N)c3ncccc23)C[C@H](CN2CCN(c3ccccc3)CC2)O1 [ER-887258, reference compound]	> 2	much narrower safety window	8.1	0.3	–	–	–
C[C@@H]1CN(c2ccc(C#N)c3ncccc23)C[C@H](CN2CCN(c3ccccn3)CC2)O1 [ER-888285, reference compound]	> 2	much narrower safety window	8.4	0.5	–	–	–
C[C@@H]1CN(c2ccc(C#N)c3ncccc23)C[C@H](CN2CC(NS(=O)(=O)c3ccc(F)cc3)C2)O1 [ER-894155]	> 10	–	–	–	–	–	–
Cc1nn(C)cc1S(=O)(=O)NC1CCN(C[C@H]2CN(c3ccc(C#N)c4ncccc34)C[C@@H](C)O2)CC1 [ER-894160]	> 10	–	–	–	–	–	–
C[C@@H]1CN(c2ccc(C#N)c3ncccc23)C[C@H](CN2CC[C@@H](NC(=O)c3ccccc3)C2)O1 [ER-894544]	> 6.2	–	–	–	–	–	–
[2H]c1nc2c(C#N)ccc(N3C[C@H](CN4CCN(c5nc(C)cc(N6C[C@H](OC)[C@@H](N)C6)n5)CC4)O[C@H](C)C3)c2nc1[2H] [Example 105, 8-[(2S,6R)-2-[[4-[4-[(3S,4S)-3-amino-4-methoxy-pyrrolidin-1-yl]-6-methyl-pyrimidin-2-yl]piperazin-1-yl]methyl]-6-methyl-morpholin-4-yl]-2,3-dideuterio-quinoxaline-5-carbonitrile]	–	–	–	–	0.013	0.069	–
COc1ccc(N2CCN(C[C@H]3CN(c4ccc(C#N)c5ncccc45)C[C@@H](C)O3)CC2)cc1 [Example R1, 5-[(2S,6R)-2-[[4-(4-methoxyphenyl)piperazin-1-yl]methyl]-6-methyl-morpholin-4-yl]quinoline-8-carbonitrile, reference compound]	–	much narrower safety window	9.3	0.1	–	–	6.2
C[C@@H]1CN(c2ccc(C#N)c3ncccc23)C[C@H](CN2CCN(c3ccc(Cl)cc3)CC2)O1 [Example R2, 5-[(2S,6R)-2-[[4-(4-chlorophenyl)piperazin-1-yl]methyl]-6-methyl-morpholin-4-yl]quinoline-8-carbonitrile, reference compound]	–	much narrower safety window	1.3	0.04	–	–	0.8
